Test results reported in paper PMC7769561, “Antileishmanial activity of synthetic analogs of the naturally occurring quinolone alkaloid N-methyl-8-methoxyflindersin” (PLoS ONE, 2020).
In brackets after ≈: the same amount, converted by molar mass. Several values for one entry are separate records, joined by “and”; a condition that tells them apart may be missing. Identical values can stand only once. Entries after “also recorded” stand apart in the source; their conditions may differ. Like-named read-outs stand apart in the source and are kept apart here.

Columns and labels:
[1] = system: L. (V.) panamensis intracellular amastigotes; assay: Antileishmanial activity in L. (V.) panamensis intracellular amastigotes in hMDMs; format: cell-based, Leishmania (Viannia) panamensis; conditions: for SI (selectivity index = CC50/EC50): CC50 hMDMs / EC50 intracellular amastigotes; for EC50 Intracellular amastigotes: amastigotes in hMDMs, 72 h, ± SD
Protocol: Next, 100 μL of the suspension was cultured in 96-well plates and infected with L. (V.) panamensis promastigotes (HMOM/COL/87/UA-140) at a 10:1 parasite:cell ratio. We incubated the plates in a 5% CO2 atmosphere for 4 h at 35°C. After incubation, we removed noninternalized parasites by washing the cells with 0.9% NaCl saline solution (Baxter International, Deerfield, IL, USA). The cells were incubated again for 24 h and then treated with each quinoline alkaloid–like compound at a concentration of 100, 10, 1, 0.1, and 0.01 μg/mL in a 5% CO2 atmosphere for 72 h at 36°C. Next, we quantified the percentage of infected cells using fluorescence microscopy, as previously described by Pérez-Cordero in 2011 [23], and quantified the parasite load (amount of intracellular promastigotes and amastigotes per cell) using Giemsa staining and flow cytometry (Cytomics FC 500 MPL; Beckman Coulter, Brea, CA, USA). […] Results were expressed as EC50 using Prism GraphPad software’s probit nonlinear regression analysis (https://www.graphpad.com/scientific-software/prism/).
(§1) We used GraphPad Prism nonlinear regression analysis to estimate the percentage mortality with regard to CC50 and EC50. […] The antileishmanial activity with regard to promastigotes was classified as active according to Eq 2: Active=EC50<[LC50/2], (2) where LC50 is the median lethal concentration. We also used GraphPad Prism nonlinear regression analysis to determine the intracellular antileishmanial activity (concentration vs. response), depending on the infection (number of infected cells) and parasite burden (number of parasites/cell) obtained in experimental conditions. Parasite inhibition was estimated using Eq 3, where the plate MFI is 100% parasites: Infectioninhibition(%)=100−[(MIFexposedparasites/MIFunexposedparasites×100)] (3)
The percentage inhibition was used to calculate EC50 by nonlinear regression analysis (fluorescence microscopy), while the parasite burden was evaluated as the percentage of intracellular promastigotes and amastigotes in 100 infected cells (Giemsa staining). […] The selectivity index (SI) was estimated using the following formula: SI=CC50/EC50

[2] = system: L. (V.) panamensis promastigotes; assay: Antileishmanial activity in L. (V.) panamensis promastigotes (resazurin, 72 h); format: cell-based, Leishmania (Viannia) panamensis
Protocol: They were treated with quinoline alkaloid–like compounds at a concentration of 100, 10, 1, 0.1, and 0.01 μg/mL for 72 h at 26°C. Next, we determined antileishmanial activity using the resazurin method (Sigma-Aldrich). Promastigotes treated with amphotericin B (Sigma-Aldrich) and pentamidine (Sanofi-Aventis, Gentilly, France) were used as parasite death (positive) controls. Results were expressed as the medial effective concentration (EC50) using Prism GraphPad software for nonlinear regression analysis (https://www.graphpad.com/scientific-software/prism/).
(§2) All assays required at least three independently duplicated experiments. We determined cytotoxicity against hMDMs and effectivity in L. (V) panamensis promastigotes according to each treatment’s mortality (compound and concentration) using Eq 1, where the control mean fluorescence intensity (MFI) was 100% viability: Validityinhibition(%)=100−[MIFexposedcells/MIFunexposedcells×100] (1)
as §1

[3] = Cytotoxicity in hMDMs (resazurin, 72 h); conditions: human
Protocol: (§3) We isolated hMDMs from buffy coats donated by the Institute of Local Science (Biotechnology and Health Innovation, Bogotá, Colombia) and spun them in Lymphoprep density gradient medium (Stem-Cell, Vancouver, Canada).
(§4) Next, we added 100 μL of this culture to each quinoline alkaloid–like compound at a concentration of 200, 20, 2, 0.2, and 0.02 μg/mL. […] Cells treated with amphotericin B (Sigma-Aldrich) were used as cell apoptosis (positive) controls. Results were expressed as the medial cytotoxic concentration (CC50) using Prism GraphPad software for nonlinear regression analysis (https://www.graphpad.com/scientific-software/prism/).
as §2, §1

hMDMs = assay: Cytotoxicity in hMDMs (resazurin, 72 h); conditions: class by CC50
Protocol: as §3, §4, §2, §1

[4] = system: L. (V.) panamensis-infected hMDMs; assay: Transmission electron microscopy of L. (V.) panamensis-infected hMDMs; format: cell-based, human; conditions: compound at EC50, 72 h, TEM; as to Cell membrane (ultrastructural modification grade): key: -: no alteration/absence; +: low alteration/low presence; ++: alteration/moderate presence; +++: serious disturbance/abundant presence; as to LB (lipid bodies, grade): key: -: no alteration/absence; +: low alteration/low presence; ++: alteration/moderate presence; +++: serious disturbance/abundant presence; as to Mitochondria (ultrastructural modification grade): key: -: no alteration/absence; +: low alteration/low presence; ++: alteration/moderate presence; +++: serious disturbance/abundant presence; as to Nucleus (ultrastructural modification grade): key: -: no alteration/absence; +: low alteration/low presence; ++: alteration/moderate presence; +++: serious disturbance/abundant presence
Excerpt: (§5) This procedure involved including fresh resin and 100–200-nm-wide ultrafine cuts observed by TEM (100X–10.000X) (HITACHI-HU-12; Hitachi, Tokyo, Japan).

[5] = system: L. (V.) panamensis-infected hMDMs; assay: ROS generation in L. (V.) panamensis-infected hMDMs (H2DCFDA flow cytometry); format: cell-based, human; conditions: compound at EC50, 4, 24, 48 and 72 h
Protocol: (§6) Next, we detached the cells with ethylenediaminetetraacetic acid (EDTA)/trypsin (Lonza, MD, USA) and 2',7'-dichlorodihydrofluorescein diacetate (H2DCFDA) tagged on a 5 μM fluorescent tube (Sigma-Aldrich) in order to identify intracellular ROS and/or 4-amino-5-methylamino-2′,7′-difluorofluorescein (DAF-FM; Sigma-Aldrich) for NO production in a 5% CO2 atmosphere for 45 min at 37°C. ROS and NO were quantified using flow cytometry (FACS Canto II) at a wavelength of 480 nm. Untreated cells were used as negative controls, while cells treated with 0.0001% H2O2 and 1 μM phorbol myristate acetate were used as ROS production (positive) controls. LPS (10 ng/mL) and phytohemagglutinin (PHA-M) (10 μL/mL) (Invitrogen) were used as positive controls for NO production.

[6] = Treatment toxicity in hamsters (live weight, ALT, creatinine, BUN); format: in vivo, golden hamster (Mesocrisetus auratus)
Excerpt: (§7) The hamsters were monitored every 4 weeks to assess their appearance and weight and the lesion size. We categorized each compound’s effectiveness pre- and posttreatment as follows: (i) cure (complete disappearance of lesions), (ii) improvement (>10% reduced lesion area), and (iii) therapeutic failure or nonresponse (increased lesion size). The health status was monitored weekly for 3 months (12 weeks) posttreatment. After 3 months, the hamsters were euthanized in a CO2 chamber. We performed histopathological analysis after necropsy of the affected tissues and organs. In addition, we evaluated treatment cytotoxicity using LW monitoring and biochemical parameters (alanine aminotransferase [ALT], creatinine, and blood urea nitrogen [BUN]) pretreatment and 45 days after ointment administration.

[7] = system: L. (V.) panamensis-infected hMDMs; assay: NO production in L. (V.) panamensis-infected hMDMs (DAF-FM flow cytometry); format: cell-based, human; conditions: compound at EC50, 24, 48 and 72 h
Protocol: as §6

[8] = system: L. (V.) panamensis intracellular amastigotes; assay: Transmission electron microscopy of L. (V.) panamensis intracellular amastigotes in hMDMs; format: cell-based, Leishmania (Viannia) panamensis; parameters: Nucleus (ultrastructural alteration grade) / Vacuoles (ultrastructural alteration grade): key: -: no alteration/absence; +: low alteration/low presence; ++: alteration/moderate presence; +++: serious disturbance/abundant presence; conditions: compound at EC50, 72 h, TEM
Excerpt: as §5

[9] = system: L. (V.) panamensis (MHOM/COL/87/UA140-EGFP); assay: Therapeutic in vivo response in hamsters with experimental cutaneous leishmaniasis; parameters: species or system golden hamster (Mesocrisetus auratus)
Excerpt: We used a golden hamster (Mesocrisetus auratus) model to evaluate the therapeutic response of synthetic alkaloid compounds 2 and 8. Male and female 6-week-old hamsters with a mean live weight (LW) of 120 g were infected by a dorsal intradermic injection of L. (V.) panamensis (MHOM/COL/87/UA140-EGFP) promastigotes. After the infected hamsters developed ulcers, they were randomly divided into three groups (n = 6 each) and treated topically with 1% ointment formulated from compounds 2 and 8.
as §7
The in vivo efficacy of compounds 1, 2, and 8 was expressed as a percentage cure, improvement, or nonresponse compared to the beginning of treatment. Efficacy was evaluated in vivo to compare percentages, the frequency of change, and treatment cytotoxicity in the hamster model. We used GraphPad Prism to determine ROS and NO production and the apoptotic cell percentage. One- or two-way analysis of variance (ANOVA; response–time kinetics) was used to compare treatments after confirming normal data distribution. P < 0.05 was considered statistically significant by comparing untreated cells (experiments on untreated hMDMs) with infected cells (experiments on untreated and treated hMDMs).

[10] = L. (V.) panamensis promastigotes, ± SD
[11] = L. (V.) panamensis promastigotes, ± SD, read-out: EC50 Intracellular promastigotes (converted)
[12] = hamsters, topical 1% ointment, 3 months posttreatment, n = 6

COc1ccc2c(OC)c3ccoc3nc2c1OC [Compound 5, 4,7,8-trimetoxifure [2,3-b]-quinoline]
SI (selectivity index = CC50/EC50) [1]: 1.73 | EC50 Intracellular amastigotes [1]: 61.7 ± 1.1 µg/mL (≈ 238 µM) | EC50 Intracellular promastigotes [2, 10]: 66.4 ± 13 µg/mL (≈ 256 µM) | EC50 [2, 11]: 256 µM

Nc1ccc2cccc(O)c2n1 [Compound 8, 2-amino-8-hydroxyquinoline]
CC50 at 72 h [3]: 5.5 µg/mL and 34 µM | Cytotoxicity class toward hMDMs (hMDMs): high (high if CC50 < 100 μg/mL) | Cell membrane (ultrastructural modification grade) [4]: - | LB (lipid bodies, grade) [4]: - | Mitochondria (ultrastructural modification grade) [4]: + | Nucleus (description) [4]: Abnormal distribution of chromatin; also recorded: Nuclear membrane alteration | Nucleus (ultrastructural modification grade) [4]: +++ | PV (description) [4]: Individuals, attached to the parasite | PV (parasitophorous vacuoles, grade) [4]: + | Parasites (grade) [4]: + | Vacuoles (description) [4]: Double membrane (autophagic-digestives) | Vacuoles (ultrastructural modification grade) [4]: +++ | Antileishmanial activity class ([1]; intracellular amastigotes, class by EC50): high (high if EC50 < 25 μg/mL) | ROS generation compared to infected control cells [5]: no significant variations | Serum BUN level ([6]; compared to before treatment): significantly decreased | Cytotoxicity-related clinical manifestations ([6]; topical 1% ointment): No cytotoxicity-related clinical manifestations | Live weight posttreatment ([6]; topical 1% ointment): no evident changes during treatment | NO production compared to untreated infected hMDMs [7]: do not modulate the induction of NO production | EC50 ([2]; read-out: EC50 Intracellular promastigotes): 1.6 µg/mL and 10 µM | Cell membrane (ultrastructural alteration grade) [8]: - | Flagellum (flagellar/axonema pocket) (description) [8]: Membrane swelling | Flagellum (flagellar/axonema pocket) (grade) [8]: +++ | LB (lipid bodies, grade) [8]: - | Mitochondria/Kinetoplasts (description) [8]: Membrane swelling | Mitochondria/Kinetoplasts (ultrastructural alteration grade) [8]: +++ | Nucleus (description) [8]: Abnormal distribution of chromatine | Nucleus (ultrastructural alteration grade) [8]: ++ | PV (description) [8]: Individuals attached to the parasite | PV (parasitophorous vacuoles, grade) [8]: + | Vacuoles (description) [8]: Double membrane (autophagic-digestives) | Vacuoles (ultrastructural alteration grade) [8]: +++ | Histopathologic analysis of the skin, cured hamsters ([9]; hamsters cured by treatment, hematoxylin/eosin): mixed leucocyte infiltratation | Lesion size during treatment ([9]; hamsters, topical 1% ointment): significantly reduced lesions | Improvement (reduced lesion size), percentage of the experimental group [9, 12]: 50% | No effect (poor response), percentage of the experimental group [9, 12]: 16.6% | Total cure (healing), percentage of the experimental group [9, 12]: 33.3%

Cc1cc2ncccc2c2nc(N)n(C)c12 [Compound 7, 3,4-dimethyl-3H-imidazol [4.5f]-quinoline-2-amine]
SI (selectivity index = CC50/EC50) [1]: 1.70 | EC50 Intracellular amastigotes [1]: 55.8 ± 8.3 µg/mL (≈ 263 µM) | EC50 Intracellular promastigotes [2, 10]: 26.5 ± 5.8 µg/mL (≈ 125 µM) | EC50 [2, 11]: 134 µM

COc1ccccc1-c1cc(C(=O)O)c2ccc(C)c(C)c2n1 [Compound 6, carboxylic acid-7,8-tetrahydro-quinoline]
SI (selectivity index = CC50/EC50) [1]: 1.89 | EC50 Intracellular amastigotes [1]: 46.5 ± 9.4 µg/mL (≈ 151 µM) | EC50 Intracellular promastigotes [2, 10]: 61.3 ± 29.6 µg/mL (≈ 199 µM) | EC50 [2, 11]: 240 µM

CCCc1c(CC)nc2ccccc2c1C(=O)O [Compound 3, carboxylic acid 2-ethyl-3-propyl-4-quinolinine]
Cytotoxicity class toward hMDMs (hMDMs): moderate (moderate if CC50 from 100 to <200 μg/mL) | SI (selectivity index = CC50/EC50) [1]: 1.27 | EC50 Intracellular amastigotes [1]: 121.9 ± 6.2 µg/mL (≈ 501 µM) | EC50 Intracellular promastigotes [2, 10]: 93.8 ± 6.3 µg/mL (≈ 386 µM) | EC50 [2, 11]: 496 µM
